Measurements published in PubChem BioAssay (NCI).
Where “and” joins values, the source holds several entries; their conditions need not be identical. Equal values may be shown once.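 1) Cells in 96-well plates. 2) Compound, 48 h, 5 concentrations. 3) Linear interpolation between surrounding doses. 4) Unreached endpoint = highest concentration. Abbreviation: GI50, concentration required for 50% inhibition of growth. TGI: total growth inhibition.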 Where a SMILES comes first, the peptide text is derived from it. Peptide text beside a SMILES is read from it. The star is where a group is joined. * marks the point of attachment. Palmitoyl = CCCCCCCCCCCCCCCC(=O)*; Boc = CC(C)(C)OC(=O)*

Experiments:
Test in all cases: NCI tumour cell line growth inhibition, 48 h
UACC-62 melanoma = system: UACC-62 melanoma
SK-MEL-28 melanoma = system: SK-MEL-28 melanoma
U251 CNS = system: U251 CNS
MDA-N = system: MDA-N
SNB-19 CNS = system: SNB-19 CNS
NCI-H460 lung = system: NCI-H460 lung
A498 renal = system: A498 renal
KM12 colon = system: KM12 colon
HL-60(TB) leukemia = system: HL-60(TB) leukemia
T-47D breast = system: T-47D breast

Structure (SMILES)	TGI (UACC-62 melanoma)	TGI (SK-MEL-28 melanoma)	TGI (U251 CNS)	TGI (MDA-N) [µM]	TGI (SNB-19 CNS)	TGI (NCI-H460 lung)	TGI (A498 renal)	TGI (KM12 colon)	TGI (HL-60(TB) leukemia)	TGI (T-47D breast)	GI50 (HL-60(TB) leukemia)	GI50 (UACC-62 melanoma)	GI50 (U251 CNS)	GI50 (SNB-19 CNS)	GI50 (NCI-H460 lung)	GI50 (A498 renal)	GI50 (KM12 colon)	GI50 (SK-MEL-28 melanoma) [µM]	GI50 (T-47D breast) [µM]
C/C=C\C(CC(=O)O)CC(=O)NCCC1CN(S(=O)(=O)C(F)(F)F)c2ccccc21 (stereo unspecified)	> 100 µM	> 100 µM	> 100 µM	> 100	> 100 µM	> 100 µM	> 100 µM	> 100 µM	–	–	–	–	–	–	–	–	–	–	–
CC(=O)Nc1ccc(C(=O)N2N=C(C)/C(=C/c3cccc(O)c3)C2=O)cc1	–	> 100 µM	> 100 µM	–	> 100 µM	> 100 µM	–	–	–	–	–	–	–	–	–	–	–	–	–
COc1cc(/C=C2\C[C@H]3[C@@H]4CC=C5C[C@@H](N6CCCC6)CC[C@]5(C)[C@H]4CC[C@]3(C)[C@H]2OC(C)=O)cc(OC)c1OC	31.7 µM	34.1 µM	29.2 µM	23.3	34.2 µM	–	28.7 µM	31.2 µM	65.7 µM	44.8 µM	–	–	–	–	–	–	–	–	–
CC(=O)c1c(O)c(C)c(O)c2c1OC1=CC(=O)C(C(C)=O)C(=O)C12C (stereo unspecified)	20.1 µM and 26.4 µM	40.9 µM and 22 µM	18.4 µM and 47.6 µM	–	18.2 µM and 44.5 µM	20.4 µM and 43.7 µM	0.412 µM and 0.742 µM	32.2 µM and 63.5 µM	8.9 µM and 43 µM	–	3.15 µM and 16.4 µM	4.86 µM and 12.7 µM	4.13 µM and 11.3 µM	4.26 µM and 12.4 µM	5.29 µM and 14.5 µM	0.232 µM and 0.507 µM	6.21 µM and 19 µM	–	–
Fc1nc(F)nc(-c2c3ccccc3c3n2CCS3)n1	–	> 100 µM	92.7 µM	–	> 100 µM	> 100 µM	> 100 µM	> 100 µM	> 100 µM	–	–	–	–	–	–	–	–	–	–
COc1ccc(CC2C(=O)NC(C)C(=O)N(C)C3Cc4ccc(cc4)Oc4cc(ccc4O)CC(C(=O)NC(C)C(=O)NC(C)C(=O)N2C)N(C)C3=O)cc1 (stereo unspecified)	0.161 µM and 0.0223 µM	–	–	–	–	0.0284 µM and 0.106 µM and 0.0325 µM	0.0147 µM and 0.0709 µM	0.127 µM	–	0.201 µM and 0.0219 µM	< 0.0001 µM	–	< 0.0001 µM	< 0.0001 µM	0.000156 µM	–	< 0.0001 µM	–	–
C=C(CCC(C(=O)O)C1CCC2(C)C3=C(CCC12C)C1(C)CCC(O)C(C)(C)C1CC3)C(C)C (stereo unspecified)	> 100 µM	> 100 µM	72.8 µM	> 100	> 100 µM	37.5 µM	75.2 µM	22.6 µM	–	> 100 µM	–	–	–	–	–	–	–	–	–
COc1ccc(NC(=O)C2=C(SC)C(=O)N=C2N)cc1	> 100 µM	> 100 µM	> 100 µM	–	> 100 µM	> 100 µM	> 100 µM	> 100 µM	> 100 µM	> 100 µM	–	–	–	–	–	–	–	–	–
O=C(CCN1CCCCC1CO)Nc1ccc2c(c1)C(=O)c1ccc(NC(=O)CCN3CCCCC3CO)cc1C2=O (stereo unspecified)	23.6 µM	28.4 µM	20.6 µM	–	31.2 µM	24.2 µM	9.87 µM	17.1 µM	29.8 µM	–	–	–	–	–	–	–	–	–	–
COCCCN1C(=O)C2c3[nH]c4ccccc4c3C3CCC(C(C)(C)C)CC3C2C1=O (stereo unspecified)	> 10 µM	> 100 µM	34.5 µM	> 100	> 100 µM	36.2 µM	–	55.5 µM	54.5 µM	> 100 µM	–	–	–	–	–	–	–	–	–
Cc1cnc2[nH]c(-c3ccccc3)cc(=O)c2c1	–	> 100 µM	> 22.1 µM	> 100	> 100 µM	> 47.5 µM	–	13.9 µM	0.226 µM	> 100 µM	–	–	–	–	–	–	–	–	–
CCCCCCCCCCCCCCCC(=O)NC(CCCCN)C(=O)NCC(=O)NC(Cc1ccccc1)C(=O)N1CCCC1C(=O)NC(CO)C(=O)NC(Cc1ccc(O)cc1)C(=O)NC(CCCCN)C(=O)NC(CC(C)C)C(=O)NC(CCCN=C(N)N)C(=O)N1CCCC1C(=O)NCC(N)=O (stereo unspecified) (Palmitoyl-KGFPSYKLRPG-NH2; configuration not given here)	–	68.2 µM	–	–	54.9 µM	37.2 µM	> 100 µM	46.6 µM	39.9 µM	45.2 µM	19.1 µM	–	–	26.6 µM	19.2 µM	34.2 µM	19.4 µM	28.6	18
COc1cc2c(cc1OC)C1Cc3ccccc3CN1CCC2 (stereo unspecified)	> 100 µM	> 100 µM	> 100 µM	> 100	> 100 µM	> 100 µM	> 100 µM	> 100 µM	–	> 100 µM	–	–	–	–	–	–	–	–	–
CC(=O)Nc1ncc2c(n1)-c1ccccc1OC2	> 100 µM	–	> 100 µM	> 100	> 100 µM	> 100 µM	> 100 µM	> 100 µM	> 100 µM	> 100 µM	–	–	–	–	–	–	–	–	–
Cc1ccc(S(=O)(=O)NC(=O)NS(=O)(=O)O)cc1	> 100 µM	> 100 µM	> 100 µM	> 100	> 100 µM	> 100 µM	–	> 100 µM	> 100 µM	> 100 µM	–	–	–	–	–	–	–	–	–
COc1ccc(-c2c(C(C)=O)c(C)n(C3OC(CO)C(O)C(O)C3O)c(=S)c2C#N)cc1 (stereo unspecified)	> 100 µM	> 100 µM	> 100 µM	> 100	33.6 µM	> 100 µM	–	> 100 µM	> 100 µM	> 100 µM	–	–	–	–	–	–	–	–	–
C=C1C(=O)O[C@H]2C(=O)[C@H](C)CCC[C@@](C)(O)/C=C\C[C@@]3(C)O[C@@H]3C[C@@H]12	37.8 µM	–	34.4 µM	34.8	> 100 µM	76.1 µM	56.1 µM	39.3 µM	–	42.3 µM	–	–	–	–	–	–	–	–	–
CSc1nc2c(ncn2C2OCC(O)C(O)C2O)c(=O)[nH]1 (stereo unspecified)	> 100 µM	> 100 µM	> 100 µM	–	> 100 µM	> 100 µM	> 100 µM	> 100 µM	> 100 µM	–	–	–	–	–	–	–	–	–	–
C[C@@H](C[C@@H](O)[C@H](O)C(C)(C)O)[C@H]1CC=C2[C@]3(C)[C@H](O)C[C@H]4C(C)(C)[C@H](O)CC[C@]4(C)[C@H]3CC[C@@]21C	–	28.5 µM	32.1 µM	29.5	32.7 µM	30.2 µM	28.5 µM	32.8 µM	40.5 µM	–	–	–	–	–	–	–	–	–	–
CSCCC(NC(=O)C(CC(C)C)NC(=O)CNC(=O)OC(C)(C)C)C(=O)N(C)C (stereo not drawn) (Boc-Gly-Leu-Met-NMe2; configuration not given here)	> 100 µM	> 100 µM	> 100 µM	> 100	> 100 µM	–	> 100 µM	> 100 µM	> 100 µM	> 100 µM	–	–	–	–	–	–	–	–	–
NC(CO)c1ccccc1 (stereo unspecified)	> 100 µM	> 100 µM	> 100 µM	–	> 100 µM	> 100 µM	–	> 100 µM	> 100 µM	–	–	–	–	–	–	–	–	–	–
